No end group written: not given here.
Legend:
[1] = system: Crlj:W1 male rats at four weeks old; experiment: Mineral apposition rate in secondary cancellous bone, 7-day oral administration; type: in vivo, rat; conditions: seven days
Description: One of the synthetic peptides (No. 1) or water for injection (control) was administered to Crlj:W1 male rats at four weeks old by oral gavage using a gastric tube once a day for seven days (n=10 in each group). The dose of the synthetic peptide was 1, 10 or 100 mg/kg-day. As a positive control, human growth hormone (hGH) (Norditropin, Standard Commodity Classification No. of Japan: 872412) was subcutaneously administered at 500 μg/kg·day once a day for seven days. As fluorescent labels for the site of bone formation, tetracycline (20 mg/kg) was subcutaneously administered on day 4 after the administration of the peptide or control, and then calcein (10 mg/kg) was subcutaneously administered on day 6 after the administration of the peptide or control. After the administration of the test sample on day 7, the rats were kept under fasting conditions. Twenty-four hours later, the rats were euthanized by bloodletting under anesthesia, and the tibiae were harvested. Non-decalcified specimens of the proximal tibiae were prepared and photographed under a fluorescent microscope (BX-53, OLYMPUS). The bone morphology was measured using a morphometry system (Histometry RT digitizer, System Supply Co., Ltd.) and an analysis software (CSS-840 cancellous bone morphometry version, System Supply Co., Ltd.). The mineral apposition rate (MAR), per day, in the secondary cancellous bone was determined by measuring the distance between the tetracycline label and the calcein label in the secondary cancellous bone, and dividing the distance by the administration interval between the fluorescent labels (two days). […] The increase in the mineral apposition rate in the secondary cancellous bone in the No. 1 administration group would have resulted from the increase in the number of osteoblasts.

[2] = system: Crlj:W1 male rats at four weeks old; experiment: Bone formation in growth cartilage and secondary cancellous bone, 21-day oral administration; type: in vivo, rat; conditions: 21 days
Description: One of the synthetic peptides (No. 1) or water for injection (control) was administered to Crlj:W1 male rats at four weeks old by oral gavage using a gastric tube once a day for 21 days (n=3 in each group). The dose of the synthetic peptide was 100 mg/kg·day. As a positive control, human growth hormone (hGH) (Norditropin, Standard Commodity Classification No. of Japan: 872412) was subcutaneously administered at 500 μg/kg·day once a day for 21 days. As fluorescent labels for the site of bone formation, tetracycline (20 mg/kg) was subcutaneously administered on day 18 after the administration of the peptide or control, and then calcein (10 mg/kg) was subcutaneously administered on day 20 after the administration of the peptide or control. After the administration of the test sample on day 21, the rats were kept under fasting conditions. Twenty-four hours later, the rats were euthanized by bloodletting under anesthesia, and the tibiae were harvested (see FIG. 20). Non-decalcified specimens of the proximal tibiae were prepared and photographed under a fluorescent microscope (BX-53, OLYMPUS). The bone morphology was measured using a morphometry system (Histometry RT digitizer, System Supply Co., Ltd.) and an analysis software (CSS-840 cancellous bone morphometry version, System Supply Co., Ltd.). The longitudinal growth rate (Lo.G.R.) in the epiphyseal cartilage, which is the increase in the height per day, was determined by measuring the distance between the tetracycline label and the calcein label, and dividing the distance by the administration interval between the fluorescent labels (two days).

[3] = system: mouse-derived chondrogenic cell line ATDC5; experiment: Chondrocyte growth-promoting activity (Cell Counting Kit-8); type: cell-based; conditions: 10 nmol/mL; 72 hours; relative to control taken as 100%; FIG. 14
Description: This study was performed using mouse-derived chondrogenic cell line ATDC5 (RIKEN BANK, RBC0565). ATDC5 cells in the logarithmic growth phase were suspended at 3×10^4 cells/mL in Eagle MEM medium supplemented with 5% FCS (fetal calf serum), and 100 μL of the cell suspension was seeded in each well of a 96-well plate and precultured at 5% CO2 and 95% air at 37° C. On the next day, the medium in each well was removed, and medium containing the synthetic peptide (No. 1 or No. 6) at 10 nmol/mL was added. The cells were cultured for 72 hours. As a control, medium without a synthetic peptide was added. The reaction solution ([…]) of Cell Counting Kit-8 (Dojindo Laboratories) was added to each well. The plate was incubated for 3 hours, and the absorbance at 450 nm was measured with a microplate reader. The activity of the synthetic peptides for promoting the growth of chondrocytes was expressed in terms of the relative value, with the absorbance (growth rate) in the control group taken as 100%.

[4] = system: Crlj:W1 male rats at four weeks old; experiment: Bone formation in growth cartilage and primary cancellous bone, 7-day oral administration; type: in vivo, rat; conditions: seven days
Description: One of the synthetic peptides (No. 1) or water for injection (control) was administered to Crlj:W1 male rats at four weeks old by oral gavage using a gastric tube once a day for seven days (n=3 in each group). The dose of the synthetic peptide (No. 1) was 100 mg/kg-day. As a positive control, human growth hormone (hGH) (Norditropin, Standard Commodity Classification No. of Japan: 872412) was subcutaneously administered at 500 μg/kg-day once a day for seven days. As fluorescent labels for the site of bone formation, tetracycline (20 mg/kg) was subcutaneously administered on day 4 after the administration of the peptide or control, and then calcein (10 mg/kg) was subcutaneously administered on day 6 after the administration of the peptide or control. After the administration of the test sample on day 7, the rats were kept under fasting conditions. Twenty-four hours later, the blood was collected. The rats were then euthanized by bloodletting under anesthesia, and the tibiae were harvested (see FIG. 16). Non-decalcified specimens of the proximal tibiae were prepared and photographed under a fluorescent microscope (BX-53, OLYMPUS). The bone morphology was measured using a morphometry system (Histometry RT digitizer, System Supply Co., Ltd.) and an analysis software (CSS-840 cancellous bone morphometry version, System Supply Co., Ltd.). The longitudinal growth rate (Lo.G.R.) in the growth cartilage, which is the increase in the height per day, was determined by measuring the distance between the tetracycline label and the calcein label, and dividing the distance by the administration interval between the fluorescent labels (two days).
The increase in the level of IGF-1, which is related to growth of the bones and muscles in a growth phase, may contribute to the bone growth-promoting effect.

VNPESEEE [No. 1]
mineral apposition rate (MAR) in the secondary cancellous bone, vs control group ([1]; No. 1 oral 1, 10 or 100 mg/kg-day, hGH 500 μg/kg·day subcutaneous, FIG. 26): significant increase in the mineral apposition rate | osteoblast surface/bone surface (Ob.S/BS) ([1]; oral 1, 10 or 100 mg/kg-day, FIG. 27): high percentage | number of osteoblasts/tissue volume (N.Ob/TV) ([1]; oral 1, 10 or 100 mg/kg-day, FIG. 28): high number of osteoblasts | bone formation rate/bone surface (BFR/BS) ([1]; oral 1, 10 or 100 mg/kg-day, FIG. 29): high rates | bone formation rate/bone surface (BFR/BS), vs control group ([1]; oral dose of 10 mg/kg-day or more): significant increase in the bone formation rate | mineral apposition rate (MAR) in the secondary cancellous bone, vs hGH administration group ([1]; oral dose of 10 mg/kg·day or more, FIG. 26): significant increase in the mineral apposition rate at a dose of 10 mg/kg·day or more as compared with the hGH administration group | longitudinal growth rate (Lo.G.R.) in the epiphyseal cartilage, vs control group ([2]; No. 1 oral 100 mg/kg·day, hGH 500 μg/kg·day subcutaneous, FIG. 21): significant promotion of bone growth as compared with the control group | longitudinal growth rate (Lo.G.R.) in the epiphyseal cartilage, vs hGH administration group ([2]; oral 100 mg/kg·day, FIG. 21): significant as compared with the hGH administration group | secondary cancellous bone volume (bone volume/tissue volume (BV/TV)) ([2]; oral 100 mg/kg·day, FIG. 22): higher secondary cancellous bone volume than the control group and the hGH administration group | osteoblast surface/bone surface (Ob.S/BS) ([2]; oral 100 mg/kg·day, FIG. 23): high percentage | osteoclast surface/Bone surface (Oc.S/BS) ([2]; oral 100 mg/kg·day, FIG. 24): low percentage | chondrocyte growth-promoting activity [3]: showed chondrocyte growth-promoting effect | serum level of insulin-like growth factor (IGF-1) ([4]; No. 1 oral 100 mg/kg-day, hGH 500 μg/kg-day subcutaneous, ELISA, FIG. 19): higher than that in the control group | longitudinal growth rate (Lo.G.R.) in the growth cartilage, vs control group ([4]; No. 1 oral 100 mg/kg-day, hGH 500 μg/kg-day subcutaneous, FIG. 17): significant promotion of bone growth as compared with the control group | longitudinal growth rate (Lo.G.R.) in the growth cartilage, vs hGH administration group ([4]; oral 100 mg/kg-day, FIG. 17): significant as compared with the hGH administration group | incorporation of the fluorescent labels into the primary cancellous bone ([4]; oral 100 mg/kg-day, vs control group and hGH group, FIG. 18): high frequency of incorporation of the fluorescent labels into the primary cancellous bone
